The values that follow come from publication PMC4268712, “Steroidal and non-steroidal third-generation aromatase inhibitors induce pain-like symptoms via TRPA1” (Nature Communications, 2014).

Assay [1] concerns the target T1, transient receptor potential ankyrin 1 (TRPA1) (Homo sapiens, UniProt O75762). As to the kind of experiment: calcium imaging (and whole-cell patch clamp) in hTRPA1-HEK293 cells, blocked by HC-030031, absent in untransfected cells. In kind it is cell-based.
Assay [2] has as its target T1, transient receptor potential ankyrin 1 (TRPA1). The assay is described as follows: calcium imaging in HEK293 cells transfected with wild-type hTRPA1 ([…]). In kind it is cell-based.

As usually defined, the EC50 is the concentration needed to bring the measured effect to its halfway point.

T1 sequence (O75762 whole entry): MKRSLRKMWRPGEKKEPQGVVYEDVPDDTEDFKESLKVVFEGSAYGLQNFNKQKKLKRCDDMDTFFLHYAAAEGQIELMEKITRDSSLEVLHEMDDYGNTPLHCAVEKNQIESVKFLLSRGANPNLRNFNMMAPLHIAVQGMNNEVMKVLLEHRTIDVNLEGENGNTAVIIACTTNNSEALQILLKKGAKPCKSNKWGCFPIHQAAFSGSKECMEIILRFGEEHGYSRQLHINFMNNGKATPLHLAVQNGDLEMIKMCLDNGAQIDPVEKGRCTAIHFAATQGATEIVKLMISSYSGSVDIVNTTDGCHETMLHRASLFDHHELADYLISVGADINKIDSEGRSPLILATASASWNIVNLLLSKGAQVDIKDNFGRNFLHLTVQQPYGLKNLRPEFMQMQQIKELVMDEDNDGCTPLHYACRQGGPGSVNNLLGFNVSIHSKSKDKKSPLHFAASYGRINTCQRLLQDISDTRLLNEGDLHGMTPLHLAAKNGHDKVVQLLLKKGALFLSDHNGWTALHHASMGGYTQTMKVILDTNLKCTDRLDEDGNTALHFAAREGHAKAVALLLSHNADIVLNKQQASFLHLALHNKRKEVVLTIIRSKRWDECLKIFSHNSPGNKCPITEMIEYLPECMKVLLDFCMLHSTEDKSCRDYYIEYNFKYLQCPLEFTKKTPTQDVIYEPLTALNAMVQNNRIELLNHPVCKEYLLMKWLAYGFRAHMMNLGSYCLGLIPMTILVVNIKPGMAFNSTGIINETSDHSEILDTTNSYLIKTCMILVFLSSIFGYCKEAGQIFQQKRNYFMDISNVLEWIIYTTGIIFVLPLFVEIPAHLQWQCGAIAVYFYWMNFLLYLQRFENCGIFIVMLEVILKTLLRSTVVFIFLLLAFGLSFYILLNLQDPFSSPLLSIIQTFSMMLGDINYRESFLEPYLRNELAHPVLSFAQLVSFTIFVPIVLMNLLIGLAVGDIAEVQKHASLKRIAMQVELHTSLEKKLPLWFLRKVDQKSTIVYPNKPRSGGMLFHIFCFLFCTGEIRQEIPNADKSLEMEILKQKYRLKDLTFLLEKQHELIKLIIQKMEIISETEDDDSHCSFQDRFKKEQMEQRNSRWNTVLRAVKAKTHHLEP

Turning to `CC(C)(C#N)c1cc(Cn2cncn2)cc(C(C)(C)C#N)c1` [ANA, anastrozole], the EC50 in assay [1] amounted to 134 µM.
On to `C=C1C[C@@H]2[C@H](CC[C@]3(C)C(=O)CC[C@@H]23)[C@@]2(C)C=CC(=O)C=C12` [EXE, exemestane], for which the EC50 in assay [1] came to 58 µM.
On to `N#Cc1ccc(C(c2ccc(C#N)cc2)n2cncn2)cc1` [LTZ, letrozole], for which, in assay [1], the EC50 came out at 69 µM.
Regarding `CC1CCC(C(C)C)C(O)C1` (stereo not shown) [menthol], the “calcium imaging in HEK293 cells transfected with wild-type hTRPA1 (100 μM)” value in assay [2] is reported as “HEK293 cells transfected with the cDNA codifying for wild-type hTRPA1 (WT) respond to all the drugs”.
